The target of series [1] is Insulin-like growth factor 1 receptor (Homo sapiens, UniProt P08069). The experiment in a line: Inhibition of GST-IGF1R.
The nature of series [2]: Aqueous solubility at pH 7.4. In kind it is physicochemical.
Series [3] is described as follows: Selectivity ratio of IC50 for GST-IR to IC50 for GST-IGF1R.

Here are results for 18 molecules from ChEMBL document CHEMBL1139310, “Lead identification to generate 3-cyanoquinoline inhibitors of insulin-like growth factor receptor (IGF-1R) for potential use in cancer treatment” (Bioorg Med Chem Lett, 2009).

≈ marks a conversion by molar mass, not a printed value.

Sequence of Insulin-like growth factor 1 receptor (P08069 31-736 limits assumed): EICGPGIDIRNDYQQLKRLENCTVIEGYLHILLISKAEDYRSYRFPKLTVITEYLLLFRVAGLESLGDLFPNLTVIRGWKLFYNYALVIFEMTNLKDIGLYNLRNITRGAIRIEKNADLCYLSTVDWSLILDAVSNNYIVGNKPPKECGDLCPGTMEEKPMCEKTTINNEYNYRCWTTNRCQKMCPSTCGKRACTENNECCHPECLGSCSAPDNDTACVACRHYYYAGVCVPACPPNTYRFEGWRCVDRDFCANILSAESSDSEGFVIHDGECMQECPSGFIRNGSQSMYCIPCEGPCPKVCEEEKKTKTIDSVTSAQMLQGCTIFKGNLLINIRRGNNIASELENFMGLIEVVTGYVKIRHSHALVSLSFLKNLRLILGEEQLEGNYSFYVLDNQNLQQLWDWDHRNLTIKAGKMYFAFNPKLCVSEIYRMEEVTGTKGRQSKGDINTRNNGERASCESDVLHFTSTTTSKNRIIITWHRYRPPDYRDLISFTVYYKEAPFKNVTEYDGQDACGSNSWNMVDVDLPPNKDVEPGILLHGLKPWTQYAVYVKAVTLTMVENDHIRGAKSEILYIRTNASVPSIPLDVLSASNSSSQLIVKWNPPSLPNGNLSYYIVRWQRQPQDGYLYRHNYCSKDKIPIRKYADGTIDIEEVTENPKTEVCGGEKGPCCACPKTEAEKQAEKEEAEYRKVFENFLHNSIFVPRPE
Sequence of Insulin-like growth factor 1 receptor (P08069 741-1367 limits assumed): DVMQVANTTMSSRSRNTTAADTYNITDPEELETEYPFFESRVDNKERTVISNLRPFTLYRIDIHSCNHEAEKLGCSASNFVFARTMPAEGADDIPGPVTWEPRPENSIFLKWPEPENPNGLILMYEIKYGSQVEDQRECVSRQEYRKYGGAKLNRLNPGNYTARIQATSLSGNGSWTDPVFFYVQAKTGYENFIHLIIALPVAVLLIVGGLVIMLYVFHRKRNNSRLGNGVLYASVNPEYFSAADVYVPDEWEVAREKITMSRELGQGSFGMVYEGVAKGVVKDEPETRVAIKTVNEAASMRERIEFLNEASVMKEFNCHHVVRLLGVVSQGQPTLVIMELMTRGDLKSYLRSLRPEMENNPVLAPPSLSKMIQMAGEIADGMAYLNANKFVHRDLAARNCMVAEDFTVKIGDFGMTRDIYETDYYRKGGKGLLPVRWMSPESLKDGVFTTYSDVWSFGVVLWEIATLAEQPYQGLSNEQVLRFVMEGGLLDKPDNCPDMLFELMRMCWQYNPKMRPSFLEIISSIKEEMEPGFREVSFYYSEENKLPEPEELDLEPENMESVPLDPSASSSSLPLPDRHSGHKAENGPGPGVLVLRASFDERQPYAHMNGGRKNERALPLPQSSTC

`COc1cc2c(Nc3ccc(Sc4nccn4C)c(Cl)c3)c(C#N)cnc2cc1NCCCN(C)C`: 0.151 µM corresponded to half-maximal inhibition in series [1] (IC50). This counts as sub-micromolar.

As for `COc1cc2c(Nc3ccc(Sc4ccccc4O)cc3)c(C#N)cnc2cc1OCCCN1CCOCC1`, the IC50 in series [1] turned out to be 1.09 µM.

Take `COc1cc2c(Nc3ccc(Sc4nccn4C)cc3)c(C#N)cnc2cc1OCCCN1CCOCC1`: the IC50 in series [1] was 1 µM.

For the molecule `COc1cc2c(Nc3ccc(Sc4nccn4C)c(Cl)c3)c(C#N)cnc2cc1N(C)CCCN(C)C`, half-maximal inhibition in series [1] (IC50) required 0.15 µM.

Regarding `CCC(=O)C1CCN(CCCOc2cc3ncc(C#N)c(Nc4ccc(Sc5nc(C)c(C)n5CC)c(Cl)c4)c3cc2OC)CC1`, half-maximal inhibition in series [1] (IC50) was put at 0.135 µM.

Take `CCC1CCCCN1CCCOc1cc2ncc(C#N)c(Nc3ccc(Sc4nc(C)c(C)n4CC)c(Cl)c3)c2cc1OC` (stereo not given): 0.032 µM corresponded to half-maximal inhibition in series [1] (IC50).

The molecule `COc1cc2c(Nc3ccc(Sc4nccn4C)c(Cl)c3)c(C#N)cnc2cc1N1CCN(C)CC1` gave an IC50 in series [1] of 0.6 µM.

Regarding `CCn1c(Sc2ccc(Nc3c(C#N)cnc4cc(OCCCNS(C)(=O)=O)c(OC)cc34)cc2Cl)nc(C)c1C`, the IC50 in series [1] stood at 0.031 µM.

As for `CCn1c(Sc2ccc(Nc3c(C#N)cnc4cc(NCCCN5CCN(C)CC5)c(OC)cc34)cc2Cl)nc(C)c1C`, the IC50 in series [1] came out at 0.016 µM.

For the molecule `COc1cc2c(Nc3ccc(Sc4nccn4C)c(Cl)c3)c(C#N)cnc2cc1OCCCN1CCOCC1`, the midpoint of inhibition in series [1], the IC50, lay at 0.066 µM. This IC50 lies about 4.1-fold higher than the previous one.

As to `CCOC(=O)NN1CCN(CCCOc2cc3ncc(C#N)c(Nc4ccc(Sc5nc(C)c(C)n5CC)c(Cl)c4)c3cc2OC)CC1`, the IC50 in series [1] amounted to 0.017 µM.

The molecule `CCn1c(Sc2ccc(Nc3c(C#N)cnc4cc(NCCCc5ccccc5)c(OC)cc34)cc2Cl)nc(C)c1C` came in with an IC50 in series [1] of 13.7 µM.

`CCn1c(Sc2ccc(Nc3c(C#N)cnc4cc(NCCCN5CCOCC5)c(OC)cc34)cc2Br)nc(C)c1C` yielded an IC50 in series [1] of 0.02 µM.

The molecule `CCN1CCN(CCCOc2cc3ncc(C#N)c(Nc4ccc(Sc5nc(C)c(C)n5CC)c(Cl)c4)c3cc2OC)CC1` had a solubility in series [2] of 2000 µg/mL (≈ 3.15 mM). Also, in series [3], the Ratio IC50 was determined as 0.17. Moreover, 0.009 µM corresponded to half-maximal inhibition in series [1] (IC50).

In series [1], `CCn1c(Sc2ccc(Nc3c(C#N)cnc4cc(NCCCN(CCO)CCO)c(OC)cc34)cc2Cl)nc(C)c1C` came in with an IC50 of 0.026 µM. This lies in the double-digit nanomolar range.

Molecule `CCNC(=O)N1CCN(CCCOc2cc3ncc(C#N)c(Nc4ccc(Sc5nc(C)c(C)n5CC)c(Cl)c4)c3cc2OC)CC1` came in with an IC50 in series [1] of 0.045 µM.

`CCn1c(Sc2ccc(Nc3c(C#N)cnc4cc(OCCCN5CCOCC5)c(OC)cc34)cc2Cl)nc(C)c1C`: the IC50 in series [1] stood at 0.015 µM.

On to `COc1cc2c(Nc3ccc(Sc4ccccn4)c(Cl)c3)c(C#N)cnc2cc1OCCCN1CCOCC1`, for which the IC50 in series [1] is more than 10 µM.
